Reference: patent US20220071961A1, “Dosing Regimen of Bicyclic Substituted Pyrazolone Azo Derivative” (Jiangsu Hengrui Medicine CO., LTD., priority 2019, published 2022)
Like-named read-outs stand apart in the source and are kept apart here.

Assay: Effect of different intervals between administration and a meal on pharmacokinetic parameters (three-period crossover, single oral dose)
Format: in vivo, human
Conditions: single oral 7.5 mg; for AUC(0-t) / AUC / Cmax / MRT / Tmax / Vd/F / half-life: male, human, plasma, po, 7.5 mg; for MRT: read-out: MRT Geomean (% CVb); for Tmax: read-out: Tmax Median; for Vd/F: read-out: Vz/F Geomean (% CVb)
Protocol: Embodiment 1: Study on an effect of different intervals between the administration and a meal on pharmacokinetic parameters of a compound represented by Formula I
Diethanolamine salt tablets of the compound represented by Formula I, with specifications of 2.5 mg/table and 5 mg/tablet.
15 healthy adult male subjects were recruited for the trial. They were randomly divided into three trial groups which correspond to three dosing sequences, i.e. ABC, BCA and CAB. A cleaning period is 10 days.
Group A: every subject orally took the test products (one T1: 2.5 mg/tablet and one T2: 5 mg/tablet) once on an empty stomach with 240 mL of room temperature water on the morning of the test. […] They were not allowed to drink water within 1 h before administration and 1 h after administration, but were allowed to drink water as needed for the rest time.
Group B: every subject orally took the test products (one T1: 2.5 mg/tablet and one T2: 5 mg/tablet) once on an empty stomach with 240 mL of room temperature water on the morning of the test. They ate high-fat and high-calorie standard meals 1 h after administration, needed to stagger the timing of the breakfast and the blood sampling, and needed to finish the breakfast within 30 min. They were not allowed to drink water within 1 h before administration and 1 h after administration, but were allowed to drink water as needed for the rest time.
Group C: every subject orally took the test products (one T1: 2.5 mg/tablet and one T2: 5 mg/tablet) once on an empty stomach with 240 mL of room temperature water on the morning of the test. They ate high-fat and high-calorie standard meals 2 h after administration, needed to stagger the timing of the breakfast and the blood sampling, and needed to finish the breakfast within 30 min. They were not allowed to drink water within 1 h before administration and 1 h after administration, but were allowed to drink water as needed for the rest time.
The high-fat meal: calories: 800 to 1,000 kcal, composed of 150 kcal of protein, 250 kcal of carbohydrates and 500 to 600 kcal of fats, wherein about 50% of the calories come from the fats. The ingredients and proportions of the standard meals needed to be consistent in each test period. The specific administration sequences are shown in a table below. An effect of food on the medicine was analyzed by sampling blood at fixed time points before and after administration and measuring vital signs.
In the test, there were Group A (without a breakfast after administration), Group B (with a high-fat and high-calorie standard meal 1 h after administration) and Group C (with a high-fat and high-calorie standard meal 2 h after administration) which correspond to threes administration sequences, i.e. ABC, BCA and CAB. A non-compartmental model (NCA) of WinNonlin 7.0 version was used to calculate PK parameters according to the actual sampling time, and software of SAS 9.4 version was used to list and make descriptive statistical analysis on the PK parameters. Results of descriptive statistical analysis of the PK parameters of the compound represented by Formula I of the subjects in the groups (Group A, Group B and Group C) with different intervals between the administration and a meal are shown in Table 2.
A mixed-effects model was used to perform analysis of variance (ANOVA) on the PK parameters (Cmax, AUC0-t and AUC0-τ), which are subjected to natural log conversion, of the subjects in the groups with different intervals between administration and a meal by using the software of SAS 9.4 version.

[1] = Group B vs Group A (meal 1 h after administration vs no food)
[2] = Group B vs Group C (meal 1 h vs meal 2 h after administration)
[3] = Group C vs Group A (meal 2 h after administration vs no food)
[4] = food 1 h after administration relative to food 2 h after administration
[5] = food 1 h after administration relative to no food after administration
[6] = food 2 h after administration relative to no food after administration
[7] = Group A, without a breakfast after administration, N = 15
[8] = Group B, high-fat meal 1 h after administration, N = 14
[9] = Group C, high-fat meal 2 h after administration, N = 14

In the case of `CC1=NN(c2ccc3c(c2)CCCC3)C(=O)/C1=N\Nc1cccc(-c2ccc(C(=O)O)o2)c1O` [compound represented by Formula I], the “AUC0-t GeoLSM Ratio” value [1] is reported as 23.65%, the “AUC0-ē GeoLSM Ratio” value [1] is reported as 25.37% and the “Cmax GeoLSM Ratio” value [1] is reported as 44.01%. The “AUC0-t GeoLSM Ratio” value [2] was 66.10%, the “AUC0-ē GeoLSM Ratio” value [2] was 65.76% and the “Cmax GeoLSM Ratio” value [2] was 78.12%. For the same molecule, the “AUC0-t GeoLSM Ratio” value [3] was 35.78%, the “AUC0-ē GeoLSM Ratio” value [3] was 38.57% and the “Cmax GeoLSM Ratio” value [3] was 56.33%. For the same molecule, the “AUC0-τ reduced by” value [4] was roughly 34%, the “Cmax reduced by” value [4] was “about 22%” and the “AUC0-τ reduced by” value [5] was roughly 75%. For the same molecule, the “Cmax reduced by” value [5] was “about 56%”, the “AUC0-τ reduced by” value [6] was roughly 61% and the “Cmax reduced by” value [6] was “about 44%”. For the same molecule, the AUC(0-t) (Group A, no food after administration, n 15, mixed-effects ANOVA, read-out: AUC0-t GeoLSM (geometric least squares mean)) was 857 ng·h/mL, the AUC (Group A, no food after administration, n 15, mixed-effects ANOVA, read-out: AUC0-ē GeoLSM (geometric least squares mean)) was 929 ng·h/mL and the Cmax (Group A, no food after administration, n 15, mixed-effects ANOVA, read-out: Cmax GeoLSM (geometric least squares mean)) was 35.1 ng/mL. The AUC(0-t) (Group A, without a breakfast after administration, N = 15, read-out: AUC0-t Geomean (% CVb)) was 857 ng·h/mL, the AUC(0-t) (Group A, without a breakfast after administration, N = 15, read-out: AUC0-t Mean SD) was 1040 ng·h/mL and the AUC (Group A, without a breakfast after administration, N = 15, read-out: AUC0-ē Geomean (% CVb)) was 929 ng·h/mL. The AUC (Group A, without a breakfast after administration, N = 15, read-out: AUC0-ē Mean SD) was 1110 ng·h/mL, the Cmax (Group A, without a breakfast after administration, N = 15, read-out: Cmax Geomean (% CVb)) was 35.1 ng/mL and the Cmax (Group A, without a breakfast after administration, N = 15, read-out: Cmax Mean SD) was 39.2 ng/mL. For the same molecule, the MRT [7] was 32.1 h, the Tmax [7] was 7 h and the Vd/F [7] was 308 L. It also gave a half-life (Group A, without a breakfast after administration, N = 15, read-out: t1/2 Geomean (% CVb) (converted)) of 26.4 h, a half-life (Group A, without a breakfast after administration, N = 15, read-out: t1/2 Mean SD (converted)) of 29.3 h and a Tmax (Group B, high-fat and high-calorie standard meal 1 h after administration, N = 14) of 2 h. It also gave an AUC(0-t) (Group B, high-fat meal 1 h after administration, N = 14, read-out: AUC0-t Geomean (% CVb)) of 202 ng·h/mL, an AUC(0-t) (Group B, high-fat meal 1 h after administration, N = 14, read-out: AUC0-t Mean SD) of 314 ng·h/mL and an AUC (Group B, high-fat meal 1 h after administration, N = 14, read-out: AUC0-ē Geomean (% CVb)) of 235 ng·h/mL. It also gave an AUC (Group B, high-fat meal 1 h after administration, N = 14, read-out: AUC0-ē Mean SD) of 347 ng·h/mL, a Cmax (Group B, high-fat meal 1 h after administration, N = 14, read-out: Cmax Geomean (% CVb)) of 15.4 ng/mL and a Cmax (Group B, high-fat meal 1 h after administration, N = 14, read-out: Cmax Mean SD) of 21.1 ng/mL. The MRT [8] was 17.4 h, the Vd/F [8] was 531 L and the half-life (Group B, high-fat meal 1 h after administration, N = 14, read-out: t1/2 Geomean (% CVb) (converted)) was 11.6 h. It also gave a half-life (Group B, high-fat meal 1 h after administration, N = 14, read-out: t1/2 Mean SD (converted)) of 13.1 h, an AUC(0-t) (Group B, meal 1 h after administration, n 14, mixed-effects ANOVA, read-out: AUC0-t GeoLSM (geometric least squares mean)) of 203 ng·h/mL and an AUC (Group B, meal 1 h after administration, n 14, mixed-effects ANOVA, read-out: AUC0-ē GeoLSM (geometric least squares mean)) of 236 ng·h/mL. The Cmax (Group B, meal 1 h after administration, n 14, mixed-effects ANOVA, read-out: Cmax GeoLSM (geometric least squares mean)) was 15.5 ng/mL, the Tmax (Group C, high-fat and high-calorie standard meal 2 h after administration, N = 14) was 5.01 h and the AUC(0-t) (Group C, high-fat meal 2 h after administration, N = 14, read-out: AUC0-t Geomean (% CVb)) was 303 ng·h/mL. For the same molecule, the AUC(0-t) (Group C, high-fat meal 2 h after administration, N = 14, read-out: AUC0-t Mean SD) was 547 ng·h/mL, the AUC (Group C, high-fat meal 2 h after administration, N = 14, read-out: AUC0-ē Geomean (% CVb)) was 355 ng·h/mL and the AUC (Group C, high-fat meal 2 h after administration, N = 14, read-out: AUC0-ē Mean SD) was 591 ng·h/mL. The Cmax (Group C, high-fat meal 2 h after administration, N = 14, read-out: Cmax Geomean (% CVb)) was 19.6 ng/mL, the Cmax (Group C, high-fat meal 2 h after administration, N = 14, read-out: Cmax Mean SD) was 28.6 ng/mL and the MRT [9] was 21.4 h. It also gave a Vd/F [9] of 460 L, a half-life (Group C, high-fat meal 2 h after administration, N = 14, read-out: t1/2 Geomean (% CVb) (converted)) of 15.1 h and a half-life (Group C, high-fat meal 2 h after administration, N = 14, read-out: t1/2 Mean SD (converted)) of 18.6 h. The AUC(0-t) (Group C, meal 2 h after administration, n 14, mixed-effects ANOVA, read-out: AUC0-t GeoLSM (geometric least squares mean)) was 307 ng·h/mL, the AUC (Group C, meal 2 h after administration, n 14, mixed-effects ANOVA, read-out: AUC0-ē GeoLSM (geometric least squares mean)) was 358 ng·h/mL and the Cmax (Group C, meal 2 h after administration, n 14, mixed-effects ANOVA, read-out: Cmax GeoLSM (geometric least squares mean)) was 19.8 ng/mL. The “% AUCex Geomean (% CVb)” value [7] was 6.62%, the “CL/F Geomean (% CVb)” value [7] was 8.0740 L/h and the “CL/F Mean SD” value [7] was 10.4506 L/h. The “≅z Geomean (% CVb)” value [7] was 0.0263 h⁻¹, the “% AUCex Geomean (% CVb)” value [8] was 11.39% and the “CL/F Geomean (% CVb)” value [8] was 31.8657 L/h. For the same molecule, the “CL/F Mean SD” value [8] was 52.4396 L/h, the “≅z Geomean (% CVb)” value [8] was 0.0600 h⁻¹ and the “% AUCex Geomean (% CVb)” value [9] was 10.57%. For the same molecule, the “CL/F Geomean (% CVb)” value [9] was 21.1107 L/h, the “CL/F Mean SD” value [9] was 42.1126 L/h and the “≅z Geomean (% CVb)” value [9] was 0.0459 h⁻¹.
